Experiments:
[1] = test system: primary human mesenchymal stem cells (hMSCs); experiment: Tenocyte differentiation assay in hMSCs (SCXA staining); format: cell-based; settings: given for EC50 of >100 μM; not defined in the method
Text: Representative compounds were screened using primary human mesenchymal stem cells (hMSCs) to determine their ability to induce tenocyte differentiation (process by which tendon is developed).
Human Mesenchymal Stem Cell Culture: Primary human mesenchymal stem cells (hMSCs) were purchased from Lonza (Walkersville, Md.) and expanded in Mesenchymal Stem Cell Growth Media (Lonza). Cells between passage 3 and 6 were used for the experiments.
Cells were fixed using 4% formaldehyde (Electron Microscopy Sciences), and stained with anti-Sclerasis (anti-SCXA) antibodies (Abgent, San Diego, Calif.) [Webb S., et. al., Retinoic acid receptor signaling preserves tendon stem cell characteristics and prevents spontaneous differentiation in vitro, Stem Cell Research & Therapy 2016, 7:45] overnight at 4° C. […] Number of cells positive for SCXA in each well was quantified using the CellInsight CX5. Data was normalized to the average of 12 DMSO treated wells on the same plate using Dotmatics Studies module. The normalized averages (fold change over DMSO) of 3 replicate wells for each compound concentration were calculated. Due to solubility limitations of some of the compounds, values for higher doses were manually corrected and curve fitting and EC50 determinations were performed using Dotmatics Studies.

[2] = test system: SW480 colon carcinoma cells; experiment: Cell viability assay (CellTiter-Glo) in SW480 cells; format: cell-based, human; settings: four days
Procedure: Representative compounds were screened using the assay procedure to assess the effect on cell viability as described below.
SW480 colon carcinoma cells were transduced with a lentiviral vector expressing luciferase with a human Sp5 promoter consisting of a sequence of eight TCF/LEF binding sites. SW480 cells stably expressing the Sp5-Luc reporter gene and a hygromycin resistance gene were selected by treatment with 150 μg/mL of hygromycin for 7 days. These stably transduced SW480 cells were expanded in cell culture and used for all further screening activities.
For the Cell Viability Assays, the cells were plated at 2,000 cells/well in 384-well plates with a DMEM medium containing 1% fetal bovine serum, and 1% Penicillin-Streptomycin and incubated for […] at 37° C. and 5% CO2. Eight replicates of DMSO-treated cells served as controls and cells treated with compound were performed in duplicate.
After incubation, 10 μL of CellTiter-Glo (Promega) was added to each well allowed to incubate for approximately 12 minutes. This reagent “results in cell lysis and generation of a luminescent signal proportional to the amount of ATP present. The amount of ATP is directly proportional to the number of cells present in culture, in agreement with previous reports. The CellTiter-Glo® Assay generates a “glow-type” luminescent signal, produced by the luciferase reaction (Promega.com)”.

[3] = test system: Wnt activity (Sp5-Luc reporter, TCF/LEF binding sites) in SW480 colon carcinoma cells; experiment: Screening assay for Wnt activity: Sp5-Luc reporter gene assay in SW480 cells; format: cell-based, human; settings: 36 to 48 hours
Text: The screening assay for Wnt activity is described as follows. Reporter cell lines can be generated by stably transducing cancer cell lines (e.g., colon cancer) or primary cells (e.g., IEC-6 intestinal cells) with a lentiviral construct that includes a Wnt-responsive promoter driving expression of the firefly luciferase gene.
SW480 colon carcinoma cells were transduced with a lentiviral vector expressing luciferase with a human Sp5 promoter consisting of a sequence of eight TCF/LEF binding sites. SW480 cells stably expressing the Sp5-Luc reporter gene and a hygromycin resistance gene were selected by treatment with 150 μg/mL of hygromycin for 7 days. These stably transduced SW480 cells were expanded in cell culture and used for all further screening activities. […] For Sp5-Luc reporter gene assays, the cells were plated at 4,000 cells/well in 384-well plates with a DMEM medium containing 1% fetal bovine serum, and 1% Penicillin-Streptomycin and incubated for 36 to 48 hours at 37° C. and 5% CO2. Following incubation, 15 μl of BriteLite Plus luminescence reagent (Perkin Elmer) was added to each well of the 384-well assay plates. The plates were placed on an orbital shaker for 2 min and then luminescence was quantified using the Envision (Perkin Elmer) plate reader. Readings were normalized to DMSO only treated cells, and normalized activities were utilized for EC50 calculations using the dose-response log (inhibitor) vs. response variable slope (four parameters) nonlinear regression feature available in GraphPad Prism 5.0 (or Dotmatics).

[4] = test system: IL-6; experiment: IL-6 inhibition in LPS-stimulated human PBMCs (HTRF); format: cell-based; settings: PBMC; for EC50: IL-6, huPBMCs, LPS 50 ng/mL, 22 hours
Procedure: Human Peripheral Blood Mononuclear Cells: Fresh Normal PB MNC (Catalog #PB001, AllCells, Alameda, Calif.) were shipped overnight at 4° C. and resuspended in Roswell Park Memorial Institute (RPMI) 1640 Medium, with GlutaMAX Supplement (Catalog #61870127, ThermoFisher Scientific, Waltham, Mass.) supplemented with 1% Penicillin-Streptomycin (Catalog #15140163, ThermoFisher Scientific, Waltham, Mass.) and 1% fetal bovine serum (FBS) (Catalog #16140089, ThermoFisher Scientific, Waltham, Mass.) assay media.
Compound Screening: Fresh normal human peripheral blood mononuclear cells (huPBMCs) were resuspended in 1% FBS-RPMI assay media with 1% Penicillin-Streptomycin 1% to a cell concentration of 1×10e6 cells/mL. […] 50 ng/mL of Lipopolysaccharides from Escherichia coli 0111:B4 (Catalog #L5293-2ML, Sigma-Aldrich, St. Louis, Mo.) was added after 2 hours and cells were incubated for another 22 hours at 37° C.-5% CO2. After 22 hour incubation, a mixture of anti-IL6 XL665 and anti-IL-6 Cryptate diluted in reconstitution buffer (Catalog #62IL6PEC, Cisbio Inc., Bedford, Mass.) was added to each well. Following incubation for 3 hours at room temperature, Homogeneous Time-Resolved Fluorescence (HTRF) was measured using the Envision (Perkin Elmer, Shelton, Conn.) at 665 nm and […]. The ratio of fluorescence at 665 nm to 620 nm was used as a readout for IL-6 quantification. All samples were processed in duplicate. Readings were normalized to DMSO treated cells and normalized activities were utilized for EC50 calculations. EC50 was determined using software generated by Dotmatics Limited (Windhill Bishops Stortford Herts, UK) using the Levenberg-Marquardt 4 parameter fitting procedure with finite different gradients.

[5] = test system: primary human fibroblasts derived from IPF patients (LL29 cells) treated with TGF-β1; experiment: Inhibition of the fibrotic process: αSMA staining in TGF-β1 treated LL29 fibroblasts; format: cell-based; settings: % cells positive for αSMA, TGF-β1 20 ng/mL, 4 days
Procedure: Representative compounds were screened using primary human fibroblasts (derived from IPF patients) treated with TGF-β1 to determine their ability to inhibit the fibrotic process.
LL29 cells were plated at 1,500 cells/well in 70 μL/well F12 medium supplemented with 1% Fetal Bovine Serum. […] Wells treated with TGF-β1 and containing DMSO were used as positive control, and cells with only DMSO were negative control. […] Following incubation for 4 days, SYTOX green nucleic acid stain (Life Technologies [Thermo Fisher Scientific]) was added to the wells at a final concentration of 1 μM and incubated at room temperature for 30 min.

5-(1,2-Dimethyl-1H-imidazol-5-yl)-N-(2-methylthiazol-5-yl)-1H-indazole-3-carboxamide [Compound 139]
percent value in parentheses beside EC50 >100 [1]: (21.2%)

Cc1ncc(-c2ccc3[nH]nc(C(=O)NC4CCN(CC(C)(C)F)CC4)c3c2)n1C [Compound 42, 5-(1,2-Dimethyl-1H-imidazol-5-yl)-N-(1-(2-fluoro-2-methylpropyl)piperidin-4-yl)-1H-indazole-3-carboxamide]
EC50 ([2]; Homo sapiens, 96 h): > 10 µM | EC50 ([3]; Homo sapiens): 507 nM | EC50 [4]: > 10000 nM | inhibition at 10 µM ([4]; read-out: percent inhibition at 10 μM): 10.4% | EC50 ([5]; Homo sapiens, Fibroblast, 96 h): 1360 nM

C[C@H]1C[C@H](NC(=O)c2n[nH]c3ccc(-c4cnn(C)c4)cc23)CCN1CC(C)(C)F [Compound 44, N-((2S,4R)-1-(2-fluoro-2-methylpropyl)-2-methylpiperidin-4-yl)-5-(1-methyl-1H-pyrazol-4-yl)-1H-indazole-3-carboxamide]
EC50 ([2]; Homo sapiens, 96 h): 1.52 µM | EC50 ([3]; Homo sapiens): 279 nM | EC50 [4]: 1030 nM | EC50 ([5]; Homo sapiens, Fibroblast, 96 h): 199 nM

O=C(Nc1ccc(F)cc1)c1n[nH]c2ccc(-c3cnc4n3CCNC4)cc12 [Compound 52, N-(4-Fluorophenyl)-5-(5,6,7,8-tetrahydroimidazo[1,2-a]pyrazin-3-yl)-1H-indazole-3-carboxamide]
EC50 ([5]; Homo sapiens, Fibroblast, 96 h): 540 nM

CC(C)(F)CN1CCC(n2cc(-c3ccc4[nH]nc(C(=O)Nc5ccc(OC(F)F)cc5)c4c3)cn2)CC1 [Compound 61, N-(4-(difluoromethoxy)phenyl)-5-(1-(1-(2-fluoro-2-methylpropyl)piperidin-4-yl)-1H-pyrazol-4-yl)-1H-indazole-3-carboxamide]
EC50 [2]: > 10 µM | EC50 [3]: > 10000 nM | EC50 [5]: 9 nM

Cc1ncc(-c2ccc3[nH]nc(C(=O)Nc4ccc(OC5CCN(C)CC5)cc4)c3c2)s1 [Compound 82, N-(4-((1-Methylpiperidin-4-yl)oxy)phenyl)-5-(2-methylthiazol-5-yl)-1H-indazole-3-carboxamide]
percent value in parentheses beside EC50 >100 [1]: (2.9%)

Cn1cc(-c2cc(F)c3[nH]nc(C(=O)NC4CCN(CC(F)F)CC4)c3c2)cn1 [Compound 101, N-(1-(2,2-Difluoroethyl)piperidin-4-yl)-7-fluoro-5-(1-methyl-1H-pyrazol-4-yl)-1H-indazole-3-carboxamide]
percent value in parentheses beside EC50 >100 [1]: (33.0%)

CN1CCC(Oc2ccc(NC(=O)c3n[nH]c4c(F)cc(-c5cnn(C)c5)cc34)cn2)CC1 [Compound 129, 7-Fluoro-5-(1-methyl-1H-pyrazol-4-yl)-N-(6-((1-methylpiperidin-4-yl)oxy)pyridin-3-yl)-1H-indazole-3-carboxamide]
percent value in parentheses beside EC50 >100 [1]: (13.0%)

Cc1cc(NC(=O)c2n[nH]c3ccc(-c4cnn(C5CCN(C)CC5)c4)cc23)sn1 [Compound 143, N-(3-Methylisothiazol-5-yl)-5-(1-(1-methylpiperidin-4-yl)-1H-pyrazol-4-yl)-1H-indazole-3-carboxamide]
percent value in parentheses beside EC50 >100 [1]: (23.0%)

CN1CCN(c2cccc(NC(=O)c3n[nH]c4cc(F)c(-c5cnn(C)c5)cc34)c2)CC1 [Compound 149, 6-Fluoro-5-(1-methyl-1H-pyrazol-4-yl)-N-(3-(4-methylpiperazin-1-yl)phenyl)-1H-indazole-3-carboxamide]
percent value in parentheses beside EC50 >100 [1]: (36.0%)

CN1CCC(Oc2cccc(NC(=O)c3n[nH]c4cc(F)c(-c5cnn(C)c5)cc34)c2)CC1 [Compound 151, 6-Fluoro-5-(1-methyl-1H-pyrazol-4-yl)-N-(3-((1-methylpiperidin-4-yl)oxy)phenyl)-1H-indazole-3-carboxamide]
percent value in parentheses beside EC50 >100 [1]: (3.5%)

Cn1cc(-c2cc3c(C(=O)Nc4cccc(OCCN5CCCC5)c4)n[nH]c3cc2F)cn1 [Compound 154, 6-Fluoro-5-(1-methyl-1H-pyrazol-4-yl)-N-(3-(2-(pyrrolidin-1-yl)ethoxy)phenyl)-1H-indazole-3-carboxamide]
percent value in parentheses beside EC50 >100 [1]: (21.0%)

Source: US11713320B2, “5-heteroaryl substituted indazole-3-carboxamides and preparation and use thereof” (BioSplice Therapeutics, Inc., priority 2018, dated 2023)
